We go through 6 compounds from article PMC6321136, “Combined In Vitro Studies and in Silico Target Fishing for the Evaluation of the Biological Activities of Diphylleia cymosa and Podophyllum hexandrum” (Molecules, 2018).

Test [1] in a line: Thiobarbituric acid reactive substances (TBARS) assay. Also noted: species or system bovine. The procedure:
The evaluation of antioxidant activity using the TBARS assay, with adaptations. Briefly, the samples were solubilized in methanol (50.0 to 31.25 μg/mL) and a portion of 25 μL of each extract solution was added to 10 mL test tubes in triplicate (two reaction tubes and one control). The tubes corresponding to the blank, negative and positive controls were prepared by adding 25 μL of deionized water, MeOH or propylgalate (Sigma, St. Louis, MO, USA, 0.1 mM), respectively. The phospholipid liposomes were prepared using bovine brain extract type VII (Sigma Aldrich, St. Louis, MO, USA, 10 mg/mL) in phosphate buffered saline (PBS) solution. The suspension was subjected to an ultrasonic bath until the formation of the liposomes. […] The butanolic phase was removed and transferred to a 96-well microplate, and the absorbance was recorded on a Multiskan Go microplate reader (Thermo Scientific, Whaltham, MA, USA) at 532 nm. The percentage of inhibition (%I) of lipid peroxidation was calculated as: %I = ((AC − AS)/AC) × 100 where AC is the absorbance of control, AS is the absorbance of samples. Assays were performed in triplicate and IC50 values were determined by non-linear regression using GraphPad Prism, version 6.0 (GraphPad Software, San Diego, CA, USA). […]

Test [2] in a line: DPPH radical scavenger activity. The procedure: The evaluation of the antioxidant activity using the 2,2-diphenyl-1-picrylhydrazyl radical (DPPH) was performed according to the method proposed by Mensor et al., with adaptations. The samples were dissolved in MeOH at concentrations ranging from 1.0 to 200 μg/mL. A portion of 250 μL of each sample was added to a 96-well microplate. MeOH and pyrogallol (50 µg/mL) were employed as negative and positive controls, respectively. Then, 100 μL of either MeOH (blank wells) or DPPH solution (120 μg/mL, reaction wells) was added to the microplate. The reading was performed on a microplate reader (EL808IU-Biotek model, Biotek, Winooski, VT, USA), at 5 min intervals for a total of 45 min, at 515 nm. The percentage of radical scavenging activity (%RSA) was calculated using the following equation: % RSA = ((AC − AS)/AC) × 100, where AC is the absorbance of control and AS is the absorbance of samples taken at 35 min. The results were expressed in EC50 (effective concentration for 50% capture of the radicals) determined by non-linear regression using GraphPad Prism, version 6.0.

A short description of test [3]: β-Carotene/linoleic acid co-oxidation assay. The procedure:
The evaluation of the antioxidant activity using the β-carotene/linoleic acid co-oxidation system was performed according to Duarte-Almeida et al., with adaptations. The extracts were solubilized in MeOH (2.2 mg/mL) and further diluted to concentrations ranging from 3.125 to 200 μg/mL. An aliquot of 25 μL of sample solutions were added in the 96-well microplate. 25 mg of linoleic acid and 100 mg Tween 20 (Sigma, St. Louis, MO, USA) were added to a round-bottom flask containing 1 mL of a β-carotene solution (1 mg/mL, Sigma, St. Louis, MO, USA) in chloroform. The latter was removed in a rotatory evaporator and, then, 50 mL of aerated water was added to the flask, affording the β-carotene emulsion. Portions of 250 μL of the freshly prepared emulsion were added to the wells corresponding to the odd columns of a microplate. […] Readings were performed immediately at 470 nm. After the first reading, the microplate was incubated at 45 °C and the kinetic cycle was performed with readings at 15 min intervals for a total of 120 min. The antioxidant activity was expressed as % of inhibition of lipid peroxidation (%I), using the formula (I% = Ac (initial abs − Final abs) − Aam (final abs − Initial abs)/Ac × 100). Assays were performed in triplicate and IC50 values were determined by non-linear regression using GraphPad Prism, version 6.0 (GraphPad Software, San Diego, CA, USA).

Test [4] relates to AChE. Also noted: method as in El-Hassan et al. [86]. As to conditions: ref El-Hassan et al. [86]; cited from earlier work.
Test [5] concerns AChE. On the set-up: method as in Itoh et al. [85]. As to conditions: 3 mg/kg; ref Itoh et al. [85]; cited from earlier work.
Test [6] addresses T1, acetylcholinesterase enzyme (Electropardus electricous type VI-S) (Electrophorus electricus, UniProt O42275).
T1 construct: purchased Sigma-Aldrich, St. Louis, MO, USA type VI-S (catalogue number not given)
The test is described as follows: AChE bioautographic assay (TLC). Type of test: biochemical. Also noted: key: -: not active; +: slight inhibition; ++++: strong inhibition. As to conditions: intensity of white bands. The method, then:
The bioautographic assay was performed by thin layer chromatography (TLC) according to the method proposed by Marston, Kissling and Hostettman. The extracts were solubilized in methanol (Merck) at 20 mg/mL, and a portion of 10 μL of this solution was applied on a TLC plate (silica gel 60 F254, Merck, Darmstadt, Germany), which was eluted with CHCl3:MeOH (9:1). The acetylcholinesterase enzyme (Electropardus electricous type VI-S, Sigma-Aldrich, St. Louis, MO, USA) solution was prepared by diluting 1 KU of the enzyme in 30 mL of Tris/HCl buffer, pH 7.8, with the addition of 30 mg of bovine serum albumin (BSA). The enzyme solution was sprayed on the TLC plate and incubated in a humid chamber at 37 °C for 20 min. The substrate solution was prepared using 1-naphthyl acetate (2.5 mg/mL) and Fast Blue B salt (2.5 mg/mL), and sprayed on the TLC plate after the incubation period. […] The result was expressed by the intensity of the white bands observed.

Test [7] has as its target T2, AChE from Electropardus electricous type VI-S (Electrophorus electricus, UniProt O42275).
T2 construct: purchased Sigma-Aldrich, St. Louis, MO, USA type VI-S (catalogue number not given)
The test is described as follows: AChE inhibition microplate assay (Ellman). Type of test: biochemical. As to conditions: 400 μg/mL; read-out: Inhibition of AChE Microplate (%I). The procedure:
AChE inhibition assay was performed on a 96-well microplate according to Ellman’s method with adaptations. Initially, the extracts were solubilized on MeOH, at 20 mg/mL, and diluted to 4 mg/mL using Tris/HCl buffer solution (50 mM, pH 8.0). A portion of 25 µL of the samples (4 mg/mL) were added to the wells of the microplate, as well as 50 μL of 0.1% BSA solution in Tris/HCl Buffe (pH 8.0), 125 μL of DTNB in Tris/HCl (3 mM) containing NaCl (10 mM) and MgCl2 (20 mM). Subsequently, 25 μL of the ATCI aqueous solution (15 mM) was added to all wells. Then, a background reading was performed at 405 nm using microplate reader (Multiskan Go, Thermo Scientific, Whaltham, MA, USA). The enzymatic reaction was initiated after the addition of 25 µL of AChE solution (AChE from Electropardus electricous type VI-S, 0.2 U/mL, Sigma-Aldrich, St. Louis, MO, USA) in Tris/HCl buffer (50 mM, pH 8.0) containing 0.1% BSA. The kinetic cycle was performed in a period of 25 min, with readings at 5 min intervals, at 405 nm. Physostigmine (Eserine, Sigma, St. Louis, MO, USA) was employed as the positive control. […] The assay was performed in triplicate and the % of inhibition (%I) was calculated according to the following equation: %I = [(a − b)/a] × 100, where a = ΔA/min of control; b = ΔA/min of test sample; ΔA = change in absorbance between time x and time zero. […]
For orientation: In Ellman's method for cholinesterases, released thiocholine reacts with DTNB.

Converted amounts (≈) assume the structure as drawn.

T2 sequence (O42275 24-633): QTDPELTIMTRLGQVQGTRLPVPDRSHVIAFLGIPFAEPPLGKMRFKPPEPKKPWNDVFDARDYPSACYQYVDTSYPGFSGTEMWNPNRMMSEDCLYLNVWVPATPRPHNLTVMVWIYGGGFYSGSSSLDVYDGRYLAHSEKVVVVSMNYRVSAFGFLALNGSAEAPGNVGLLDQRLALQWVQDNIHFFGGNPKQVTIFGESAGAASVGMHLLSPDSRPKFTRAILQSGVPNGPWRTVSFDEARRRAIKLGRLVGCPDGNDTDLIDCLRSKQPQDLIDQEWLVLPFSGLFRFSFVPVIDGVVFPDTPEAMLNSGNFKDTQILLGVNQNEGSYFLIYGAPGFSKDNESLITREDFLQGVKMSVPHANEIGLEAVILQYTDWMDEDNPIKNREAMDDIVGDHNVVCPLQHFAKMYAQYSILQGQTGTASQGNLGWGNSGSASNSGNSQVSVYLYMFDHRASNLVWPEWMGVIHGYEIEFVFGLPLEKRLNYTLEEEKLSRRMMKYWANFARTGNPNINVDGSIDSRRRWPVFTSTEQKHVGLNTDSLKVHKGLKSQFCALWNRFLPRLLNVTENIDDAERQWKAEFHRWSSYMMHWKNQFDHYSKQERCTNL
T1 sequence (O42275 24-633): as above

In the case of `CCCOC(=O)c1cc(O)c(O)c(O)c1` [Propylgalate, propylgalate, reference compound], the “Antioxidant Activity (IC50-µg/mL) TBARS Assay” value in test [1] is given as less than 20 µg/mL.

`Oc1cccc(O)c1O` [Pyrogallol, pyrogallol, reference compound]: in test [2], the “Antioxidant Activity (IC50-µg/mL) DPPH Radical Sequestration” value is 1.14 ± 0.15 µg/mL.

For the compound `O=c1c(O)c(-c2ccc(O)c(O)c2)oc2cc(O)cc(O)c12` [Quercetin, quercetin, reference compound], the “Antioxidant Activity (IC50-µg/mL) β-Carotene/linoleic Acid” value in test [3] is recorded as 0.3 ± 0.1 µg/mL.

For `COc1cc([C@H]2OC[C@H]3[C@@H]2CO[C@@H]3c2cc(OC)c(O)c(OC)c2)cc(OC)c1O` [Syringaresinol], in the test with AChE [4], the “IC50 AChE inhibition in vitro” value is 200 µg/mL (≈ 478 µM).

With `COc1cc2c(c(OC)c1OC)-c1c(cc(OC)c(OC)c1OC)C[C@](C)(O)[C@@H](C)C2` [Schisandrin], in the test with AChE [5], the activity in vivo entry is listed as “active”.

As a reminder, the inhibition is the drop in the measured response relative to a control, in per cent. As for `CNC(=O)Oc1ccc2c(c1)[C@]1(C)CCN(C)[C@@H]1N2C` [Physostigmine, reference compound], the “Inhibition of AChE TLC” value in test [6] is on record as “++++”. Further, the inhibition at 400 µg/mL in test [7] worked out at 89.8 ± 1.16%.
